Columns and labels:
DIGSA [1] = test: Post-emergence herbicidal action against DIGSA; type: in vivo, Digitaria sanguinalis; conditions: 80 g/ha, visual assessment about 3 weeks after treatment vs untreated controls
Procedure, shortened: (§1)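 Visual scoring about 3 weeks after treatment gave % herbicidal action relative to untreated plants (0% = control-like, 100% = plants dead). Compounds, as WP or EC with 0.2% wetting agent, were sprayed onto green parts at 600–800 l/ha. Plants had reached the one-leaf stage, 2–3 weeks after sowing in sandy loam under greenhouse conditions.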

LOLRI [2] = test: Post-emergence herbicidal action against LOLRI; type: in vivo, Lolium rigidum; conditions: 80 g/ha, visual assessment about 3 weeks after treatment vs untreated controls
Procedure, shortened: as §1

SETVI [3] = test: Post-emergence herbicidal action against SETVI; type: in vivo, Setaria viridis; conditions: 80 g/ha, visual assessment about 3 weeks after treatment vs untreated controls
Procedure, shortened: as §1

MATIN = test: Pre-emergence herbicidal action against MATIN; type: in vivo; conditions: 320 g/ha
Procedure, shortened: (§2)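 Pre-emergence soil-surface application: WP/EC in water, 600 to 800 L/ha, + 0.2% wetting agent, onto soil-covered seeds in sandy loam. Greenhouse, 3 wk. Visual % activity vs untreated (100% = dead).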

DIGSA [4] = test: Pre-emergence herbicidal action against DIGSA; type: in vivo, Digitaria sanguinalis; conditions: 320 g/ha, scored visually after 3 weeks vs untreated controls
Procedure, shortened: as §2

POLCO = test: Pre-emergence herbicidal action against POLCO; type: in vivo, Polygonum convolvulus; conditions: 320 g/ha
Source text: Seeds of monocotyledonous and dicotyledonous weed plants and crop plants are laid out in sandy loam soil in wood-fiber pots and covered with soil. The compounds of the invention, formulated in the form of wettable powders (WP) or as emulsion concentrates (EC), are then applied to the surface of the covering soil as aqueous suspension or emulsion at a water application rate equating to 600 to 800 L/ha with addition of 0.2% wetting agent.
After the treatment, the pots are placed in a greenhouse and kept under good growth conditions for the trial plants. The damage to the test plants is scored visually after a test period of 3 weeks by comparison with untreated controls (herbicidal activity in percent (%): 100% activity=the plants have died, 0% activity=like control plants).

VIOTR = test: Pre-emergence herbicidal action against VIOTR; type: in vivo, Viola tricolor; conditions: 320 g/ha
Procedure, shortened: as §2

AVEFA [5] = test: Pre-emergence herbicidal action against AVEFA; type: in vivo, Avena fatua; conditions: 320 g/ha, scored visually after 3 weeks vs untreated controls
Procedure, shortened: as §2

SETVI [6] = test: Pre-emergence herbicidal action against SETVI; type: in vivo, Setaria viridis; conditions: 320 g/ha, scored visually after 3 weeks vs untreated controls
Procedure, shortened: as §2

AMARE = test: Pre-emergence herbicidal action against AMARE; type: in vivo, Amaranthus retroflexus; conditions: 320 g/ha
Procedure, shortened: as §2

ECHCG [7] = test: Pre-emergence herbicidal action against ECHCG; type: in vivo, Echinochloa crus-galli; conditions: 320 g/ha, scored visually after 3 weeks vs untreated controls
Procedure, shortened: as §2

ALOMY [8] = test: Pre-emergence herbicidal action against ALOMY; type: in vivo, Alopecurus myosuroides; conditions: 320 g/ha, scored visually after 3 weeks vs untreated controls
Procedure, shortened: as §2

LOLRI [9] = test: Pre-emergence herbicidal action against LOLRI (Table 8, titled post-emergence at 320 g/ha); type: in vivo, Lolium rigidum; conditions: table stands in the pre-emergence section
Procedure, shortened: as §2

ECHCG [10] = test: Post-emergence herbicidal action against ECHCG; type: in vivo, Echinochloa crus-galli; conditions: 80 g/ha, visual assessment about 3 weeks after treatment vs untreated controls
Procedure, shortened: as §1

ALOMY [11] = test: Post-emergence herbicidal action against ALOMY; type: in vivo, Alopecurus myosuroides; conditions: 80 g/ha, visual assessment after about 3 weeks
Procedure, shortened: as §1

VERPE = test: Pre-emergence herbicidal action against VERPE; type: in vivo, Veronica persica; conditions: 320 g/ha
Procedure, shortened: as §2

ABUTH = test: Post-emergence herbicidal action against ABUTH; type: in vivo, Abutylon threophrasti; conditions: 80 g/ha, visual assessment about 3 weeks after treatment vs untreated controls
Description: Seeds of monocotyledonous and dicotyledonous weed and crop plants are laid out in sandy loam soil in wood-fiber pots, covered with soil and cultivated in a greenhouse under good growth conditions. 2 to 3 weeks after sowing, the test plants are treated at the one-leaf stage. The compounds of the invention, formulated in the form of wettable powders (WP) or as emulsion concentrates (EC), are then sprayed onto the green parts of the plants as aqueous suspension or emulsion at a water application rate equating to 600 to 800 l/ha with addition of 0.2% wetting agent. After the test plants have been left to stand in the greenhouse under optimal growth conditions for about 3 weeks, the action of the preparations is assessed visually in comparison to untreated controls (herbicidal action in percent (%): 100% activity=the plants have died, 0% activity=like control plants).

AVEFA [12] = test: Post-emergence herbicidal action against AVEFA; type: in vivo, Avena fatua; conditions: 80 g/ha, visual assessment after about 3 weeks
Procedure, shortened: as §1

Compound | Post-emergence action against DIGSA in % (DIGSA [1]) | Post-emergence action against LOLRI in % (LOLRI [2]) | Post-emergence action against SETVI in % (SETVI [3]) | Pre-emergence action against MATIN in % (MATIN) | Pre-emergence action against DIGSA in % (DIGSA [4]) | Pre-emergence action against POLCO in % (POLCO) | Pre-emergence action against VIOTR in % (VIOTR) | Pre-emergence action against AVEFA in % (AVEFA [5]) | Pre-emergence action against SETVI in % (SETVI [6]) | Pre-emergence action against AMARE in % (AMARE) | Pre-emergence action against ECHCG in % (ECHCG [7]) | Pre-emergence action against ALOMY in % (ALOMY [8]) | Pre-emergence herbicidal action against LOLRI in % (LOLRI [9]) | Post-emergence action against ECHCG in % (ECHCG [10]) | Post-emergence action against ALOMY in % (ALOMY [11]) | Pre-emergence action against VERPE in % (VERPE) | Post-emergence action against ABUTH in % (ABUTH) | Post-emergence action against AVEFA in % (AVEFA [12])
C=CCOCC1CCC2(C1)NC(=O)C(c1c(C)cc(C#CC)cc1Cl)=C2O (stereo not shown) [Example I-46] | 90% | 90% | 100% | 90% | 100% | 90% | 100% | 90% | 100% | 100% | 100% | 100% | 100% | 100% |  |  |  | 
CC#Cc1cc(Br)c(C2=C(O)C3(CCC(COC)C3)NC2=O)c(OCC)c1 (stereo not shown) [Example I-69] | 90% | 100% |  |  | 100% | 100% | 90% | 90% | 100% |  | 100% | 100% | 100% | 100% | 100% | 80% |  | 
C=CCOCC1CCC2(C1)NC(=O)C(c1c(C)cc(C#CC)cc1Br)=C2O (stereo not shown) [Example I-70] | 90% | 90% | 100% | 80% | 100% | 80% | 100% | 100% | 100% |  | 100% | 100% | 100% | 100% | 90% |  |  | 
CC#Cc1cc(Br)c(C2=C(OC(=O)C(C)C)C3(CCC(COC)C3)NC2=O)c(OC)c1 (stereo not shown) [Example P-04] | 100% | 100% | 100% | 90% | 100% |  | 100% | 100% | 100% | 80% |  | 100% | 100% | 100% | 100% | 90% | 80% | 
CC#Cc1cc(C)c(C2=C(OC(=O)OCC)C3(CCC(COCC)C3)NC2=O)c(F)c1 (stereo not shown) [Example P-53] | 100% | 100% |  | 90% | 100% |  | 80% | 90% | 100% |  | 100% | 100% | 100% | 100% | 100% |  | 80% | 90%
CC#Cc1cc(C)c(C2=C(OC(=O)OCC)C3(CCC(COCCOC)C3)NC2=O)c(Cl)c1 (stereo not shown) [Example P-76] | 90% | 100% | 100% |  | 100% | 100% | 100% | 100% | 100% | 100% | 100% | 100% | 100% | 100% | 100% | 100% |  | 90%
CC#Cc1cc(C)c(C2=C(OC(=O)OCC)C3(CCC(COCCC)C3)NC2=O)c(Cl)c1 (stereo not shown) [Example P-86] | 90% | 100% | 100% | 80% | 100% | 90% | 100% | 80% | 100% | 100% | 100% | 100% | 100% | 100% | 90% | 100% |  | 
CC#Cc1cc(Br)c(C2=C(OC(=O)OCC)C3(CCC(COCC)C3)NC2=O)c(OCC)c1 (stereo not shown) [Example P-89] | 90% | 90% | 100% |  | 100% | 100% | 80% | 100% | 100% |  | 100% | 100% | 100% | 100% | 100% |  |  | 
